Experimental findings from patent US20190055563A1, “POLYMERASE Q AS A TARGET IN HR-DEFICIENT CANCERS” (DANA-FARBER CANCER INSTITUTE, INC., priority 2015, published 2019) are described below.

For one series, the system named is A2780-shFANCD2 cells. Briefly: Clonogenic survival of HR-deficient cells with POLQ depletion. To be noted: A2780-shFANCD2 with shRNA targeting POLQ. The format is cell-based, human. As to the method:
(§1) For assessing cellular cytotoxicity, cells were seeded into 96-well plates at a density of 1000 cells/well. Cytotoxic drugs were serially diluted in media and added to the wells. At 72 hours, CellTiter-Glo reagent (Promega) was added to the wells and the plates were scanned using a luminescence microplate reader. Survival at each drug concentration was plotted as a percentage of the survival in drug-free media. Each data point on the graph represents the average of three measurements, and the error bars represent the standard deviation. For clonogenic survival, 1000 cells/well were seeded into six-well plates and treated with cytotoxic drugs the next day. For MMC and PARPi, cells were treated continuously with indicated drug concentrations. For CDDP, cells were treated for 24 hours and cultured for 14 days in drug-free media. Colony formation was scored 14 days after treatment using 0.5% (w/v) crystal violet in methanol. Survival curves were expressed as a percentage ±s.e.m. over three independent experiments of colonies formed relative to the DMSO-treated control.

The next series concerns A2780 cells. Briefly: 3-day survival assay with POLQ inhibition. It is filed as cell-based, human. As to conditions: 3 days of continuous exposure to ATM inhibitor. How it is done: as §1
The test system of a further series is 293T cells. Briefly: 3-day survival assay with POLQ siRNA. The format is cell-based, human. How it is done:
as §1

Series [1] deals with recombinant human GST-RAD51 (UniProt Q06609).
The target of series [2] is T1, Flag-tagged POLQ-1633-Cter (human, UniProt O75417 1633-2590).
T1 construct: range 1633-Cter; Stably expressed in HeLa cells; not shown: Flag tag
T1 sequence (looked up): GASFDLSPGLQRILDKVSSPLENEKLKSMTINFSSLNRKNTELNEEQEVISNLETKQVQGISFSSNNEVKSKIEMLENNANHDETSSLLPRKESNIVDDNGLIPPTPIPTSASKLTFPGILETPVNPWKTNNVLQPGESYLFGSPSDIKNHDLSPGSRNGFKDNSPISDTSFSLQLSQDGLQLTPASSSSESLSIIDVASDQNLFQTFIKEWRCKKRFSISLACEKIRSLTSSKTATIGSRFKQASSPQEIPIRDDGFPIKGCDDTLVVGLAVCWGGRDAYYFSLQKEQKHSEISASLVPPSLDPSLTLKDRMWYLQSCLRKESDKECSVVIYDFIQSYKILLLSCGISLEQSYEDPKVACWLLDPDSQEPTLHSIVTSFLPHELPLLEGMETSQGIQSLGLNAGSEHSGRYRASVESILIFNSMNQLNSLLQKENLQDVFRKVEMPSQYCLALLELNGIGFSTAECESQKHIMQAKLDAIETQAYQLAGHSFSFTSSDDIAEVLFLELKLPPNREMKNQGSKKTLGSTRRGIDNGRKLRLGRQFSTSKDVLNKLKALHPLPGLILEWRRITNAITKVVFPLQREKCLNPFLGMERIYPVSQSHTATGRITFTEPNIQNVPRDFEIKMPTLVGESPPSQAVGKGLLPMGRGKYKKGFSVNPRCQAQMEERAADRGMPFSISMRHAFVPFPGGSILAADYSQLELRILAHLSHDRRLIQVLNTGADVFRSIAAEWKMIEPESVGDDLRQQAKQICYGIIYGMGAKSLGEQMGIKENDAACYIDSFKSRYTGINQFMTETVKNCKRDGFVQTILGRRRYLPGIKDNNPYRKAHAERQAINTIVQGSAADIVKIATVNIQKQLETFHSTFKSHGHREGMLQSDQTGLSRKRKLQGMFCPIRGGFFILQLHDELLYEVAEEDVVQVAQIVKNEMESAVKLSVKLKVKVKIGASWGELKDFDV
Put plainly: anti-Flag co-immunoprecipitation from HeLa cells, immunoblot.

With `N.N.[Cl][Pt][Cl]` [CDDP, cis-diamminedichloroplatinum(II)], the “survival of HR-deficient cells exposed to drug, effect of POLQ depletion” value in the series on A2780-shFANCD2 cells is recorded as “reduced the survival”.

On to `O=c1cc(-c2cccc3c2Sc2ccccc2S3)oc(N2CCOCC2)c1` [Ku55933], for which the “survival of A2780 cells, effect of POLQ inhibition” value with A2780 cells is “reduces the survival”.

As for `CO[C@@]12[C@H](COC(N)=O)C3=C(C(=O)C(C)=C(N)C3=O)N1C[C@@H]1N[C@@H]12` [MMC, Mitomycin C], the “survival of HR-deficient cells exposed to drug, effect of POLQ depletion” value in the series with A2780-shFANCD2 cells is “reduced the survival”. The “cellular sensitivity to drug after depletion of POLQ” value in the series with 293T cells is “hypersensitivity”.

As for “purified recombinant POLQ fragment ΔPol2 (amino acids 1 to 1000), wild-type”, the RAD51-ssDNA nucleofilament assembly entry in series [1] is “RAD51-ssDNA assembly was reduced by wild-type ΔPol2”.

B1: endogenous RAD51 (other, UniProt Q06609 2-339, looked up)
chain: AMQMQLEANADTSVEEESFGPQPISRLEQCGINANDVKKLEEAGFHTVEAVAYAPKKELINIKGISEAKADKILAEAAKLVPMGFTTATEFHQRRSEIIQITTGSKELDKLLQGGIETGSITEMFGEFRTGKTQICHTLAVTCQLPIDRGGGEGKAMYIDTEGTFRPERLLAVAERYGLSGSDVLDNVAYARAFNTDHQTQLLYQASAMMVESRYALLIVDSATALYRTDYSGRGELSARQMHLARFLRMLLRLADEFGVAVVITNQVVAQVDGAAMFAADPKKPIGGNIIAHASTTRLYLRKGRGETRICKIYDSPCLPEAEAMFAINADGVGDAKD
notes: Endogenous protein in cell lysates
As to B1, the binding result in series [2] is “no binding”.
